Source: publication PMC4584933, “Establishing the pig as a large animal model for vaccine development against human cancer” (Frontiers in Genetics, 2015)

Tests used:
SLA-2*05:02 = experiment: Peptide-MHC class I complex stability, scintillation proximity assay (SPA); parameters: species or system pig; conditions: biotinylated recombinant SLA heavy chain, 125I-β2m, excess unlabeled β2m, read every 40 min, number only if t1/2 ≥ 0.5 h, '-' = not stably binding
Method: (§1) The stability of the selected 198 peptides in complex with relevant SLA class I molecules and β2m was determined using a scintillation proximity assay (SPA), as previously described (Harndahl et al., [2011]). Briefly, biotinylated recombinant MHC class I heavy chains were attached to a streptavidin-coated scintillation microplate together with iodinated (^125I) β2m and candidate peptide resulting in a scintillation signal, which was consecutively measured every 40 min by a scintillation plate counter. The duration of this signal is directly correlated to the stability of the peptide-MHC class I-β2m complex under dissociating conditions and in the presence of excess unlabeled β2m (Harndahl et al., [2011]). Peptides with a half-life ≥ 0.5 h were selected as stable binders.

PBMCs = experiment: In vitro peptide stimulation of porcine PBMCs, IFN-γ release assay (ELISA); type: cell-based, pig; parameters: key to T cell response: “x” indicates that a response was found to this given peptide at least once; conditions: 5 μg/ml peptide; for T cell response: PBMCs of immunized pigs, 2 × 10^5/well, 67.5–70.0 h, IFN-γ ELISA, response = 2-fold increase vs day -2 and at least 25 pg/ml IFN-γ, found at least once, SLA restriction not included
SLA-1*07:02 = experiment: Peptide-MHC class I complex stability, scintillation proximity assay (SPA); parameters: species or system pig; conditions: biotinylated recombinant SLA heavy chain, 125I-β2m, excess unlabeled β2m, read every 40 min, number only if t1/2 ≥ 0.5 h, '-' = not stably binding
Method: as §1

SLA-2*04:01 = experiment: as above; parameters: species or system pig; conditions: biotinylated recombinant SLA heavy chain, 125I-β2m, excess unlabeled β2m, read every 40 min, number only if t1/2 ≥ 0.5 h, '-' = not stably binding
Method: as §1

SLA-3*04:01 = experiment: as above; parameters: species or system pig; conditions: biotinylated recombinant SLA heavy chain, 125I-β2m, excess unlabeled β2m, read every 40 min, number only if t1/2 ≥ 0.5 h, '-' = not stably binding
Method: as §1

| Sequence | Binder (t1/2 ≥ 0.5 h): half-life of peptide-SLA-2*05:02 complex (SLA-2*05:02) | T cell response (PBMCs) | Binder (t1/2 ≥ 0.5 h): half-life of peptide-SLA-1*07:02 complex (SLA-1*07:02) | other results |
| --- | --- | --- | --- | --- |
| ALQKALLDI [IDO5, porcine IDO-derived 9-11mer peptide] | - (t1/2 (hours) is listed for each of the stably binding peptides (t1/2 ≥ 0.5 h)) | x | – | – |
| DLRQDEHTR [RhoC6, porcine RhoC-derived 9-11mer peptide] | 30 min | x | – | – |
| DVILMCFSI [RhoC12, porcine RhoC-derived 9-11mer peptide] | 354 min | x | – | – |
| EIAAASAIKV [IDO15, porcine IDO-derived 9-11mer peptide] | 156 min | x | – | maximum level of secreted IFN-γ (PBMCs; pig 2042 (CASAC), day 12, following 72 h of stimulation, ELISA): 280 pg/mL |
| ELAKMKQEPVR [RhoC16, porcine RhoC-derived 9-11mer peptide] | 48 min | x | – | – |
| ENIPEKWTPEV [RhoC18, porcine RhoC-derived 9-11mer peptide] | 90 min | x | – | – |
| EPVRSEEGRDM [RhoC20, porcine RhoC-derived 9-11mer peptide] | – | – | 30 min | – |
| EVEKLATLSI [IDO20, porcine IDO-derived 9-11mer peptide] | 42 min | x | – | – |
| EVKHFCPNV [RhoC23, porcine RhoC-derived 9-11mer peptide] | 120 min | x | – | – |
| EVKHFCPNVPI [RhoC24, porcine RhoC-derived 9-11mer peptide] | 336 min | x | – | – |
| EVYVPTVFENY [RhoC25, porcine RhoC-derived 9-11mer peptide] | – | – | 264 min | Binder (t1/2 ≥ 0.5 h): half-life of peptide-SLA-2*04:01 complex (SLA-2*04:01): 36 min |
| FLHSLESGPSV [IDO23, porcine IDO-derived 9-11mer peptide] | 36 min | x | – | – |
| FLQEMRTYM [IDO24, porcine IDO-derived 9-11mer peptide] | – | – | - (t1/2 (hours) is listed for each of the stably binding peptides (t1/2 ≥ 0.5 h)) | – |
| FPGGDCGKGFF [IDO30, porcine IDO-derived 9-11mer peptide] | – | – | - (t1/2 (hours) is listed for each of the stably binding peptides (t1/2 ≥ 0.5 h)) | – |
| HLVLGYITM [IDO40, porcine IDO-derived 9-11mer peptide] | – | – | - (t1/2 (hours) is listed for each of the stably binding peptides (t1/2 ≥ 0.5 h)) | – |
| HLVLGYITMAY [IDO41, porcine IDO-derived 9-11mer peptide] | – | – | 30 min | – |
| HPYDAWIAI [IDO42, porcine IDO-derived 9-11mer peptide] | – | – | - (t1/2 (hours) is listed for each of the stably binding peptides (t1/2 ≥ 0.5 h)) | – |
| HPYDAWIAIAK [IDO43, porcine IDO-derived 9-11mer peptide] | – | – | - (t1/2 (hours) is listed for each of the stably binding peptides (t1/2 ≥ 0.5 h)) | – |
| KGFFLVSLL [IDO49, porcine IDO-derived 9-11mer peptide] | - (t1/2 (hours) is listed for each of the stably binding peptides (t1/2 ≥ 0.5 h)) | – | – | Binder (t1/2 ≥ 0.5 h): half-life of peptide-SLA-3*04:01 complex (SLA-3*04:01): - (t1/2 (hours) is listed for each of the stably binding peptides (t1/2 ≥ 0.5 h)) |
| KLGLPPILVY [IDO55, porcine IDO-derived 9-11mer peptide] | – | – | - (t1/2 (hours) is listed for each of the stably binding peptides (t1/2 ≥ 0.5 h)) | – |

| Sequence | Binder (t1/2 ≥ 0.5 h): half-life of peptide-SLA-2*05:02 complex (SLA-2*05:02) | T cell response (PBMCs) | Binder (t1/2 ≥ 0.5 h): half-life of peptide-SLA-1*07:02 complex (SLA-1*07:02) | other results |
| --- | --- | --- | --- | --- |
| KVLPRNIAI [IDO62, porcine IDO-derived 9-11mer peptide] | - (t1/2 (hours) is listed for each of the stably binding peptides (t1/2 ≥ 0.5 h)) | – | – | Binder (t1/2 ≥ 0.5 h): half-life of peptide-SLA-3*04:01 complex (SLA-3*04:01): - (t1/2 (hours) is listed for each of the stably binding peptides (t1/2 ≥ 0.5 h)) |
| LGLPPILVY [IDO65, porcine IDO-derived 9-11mer peptide] | – | – | - (t1/2 (hours) is listed for each of the stably binding peptides (t1/2 ≥ 0.5 h)) | Binder (t1/2 ≥ 0.5 h): half-life of peptide-SLA-2*04:01 complex (SLA-2*04:01): - (t1/2 (hours) is listed for each of the stably binding peptides (t1/2 ≥ 0.5 h)) |
| LLVEIAAASAI [IDO68, porcine IDO-derived 9-11mer peptide] | 30 min | x | – | – |
| LPNPLEELPH [IDO69, porcine IDO-derived 9-11mer peptide] | – | – | - (t1/2 (hours) is listed for each of the stably binding peptides (t1/2 ≥ 0.5 h)) | – |
| LSYPDTDVIL [RhoC36, porcine RhoC-derived 9-11mer peptide] | 36 min | x | – | – |
| LSYPDTDVILM [RhoC37, porcine RhoC-derived 9-11mer peptide] | 84 min | – | – | Binder (t1/2 ≥ 0.5 h): half-life of peptide-SLA-2*04:01 complex (SLA-2*04:01): - (t1/2 (hours) is listed for each of the stably binding peptides (t1/2 ≥ 0.5 h)) |
| LVLGYITMAY [IDO73, porcine IDO-derived 9-11mer peptide] | – | – | 240 min | Binder (t1/2 ≥ 0.5 h): half-life of peptide-SLA-2*04:01 complex (SLA-2*04:01): 48 min |
| MPPAHRNFLH [IDO77, porcine IDO-derived 9-11mer peptide] | – | – | - (t1/2 (hours) is listed for each of the stably binding peptides (t1/2 ≥ 0.5 h)) | – |
| MTYKNMDIL [IDO80, porcine IDO-derived 9-11mer peptide] | - (t1/2 (hours) is listed for each of the stably binding peptides (t1/2 ≥ 0.5 h)) | – | – | Binder (t1/2 ≥ 0.5 h): half-life of peptide-SLA-2*04:01 complex (SLA-2*04:01): - (t1/2 (hours) is listed for each of the stably binding peptides (t1/2 ≥ 0.5 h)); Binder (t1/2 ≥ 0.5 h): half-life of peptide-SLA-3*04:01 complex (SLA-3*04:01): - (t1/2 (hours) is listed for each of the stably binding peptides (t1/2 ≥ 0.5 h)) |
| NPLEELPHPY [IDO86, porcine IDO-derived 9-11mer peptide] | – | – | 312 min | – |
| NSWKIFEEYHI [IDO91, porcine IDO-derived 9-11mer peptide] | 126 min | x | – | – |
| PLLSEGLLY [IDO95, porcine IDO-derived 9-11mer peptide] | – | – | 42 min | – |
| QAMVSLRNY [IDO100, porcine IDO-derived 9-11mer peptide] | – | – | - (t1/2 (hours) is listed for each of the stably binding peptides (t1/2 ≥ 0.5 h)) | – |
| RPLSYPDTDV [RhoC46, porcine RhoC-derived 9-11mer peptide] | – | – | - (t1/2 (hours) is listed for each of the stably binding peptides (t1/2 ≥ 0.5 h)) | – |
| SAIKVIPTLF [IDO114, porcine IDO-derived 9-11mer peptide] | - (t1/2 (hours) is listed for each of the stably binding peptides (t1/2 ≥ 0.5 h)) | x | – | Binder (t1/2 ≥ 0.5 h): half-life of peptide-SLA-2*04:01 complex (SLA-2*04:01): 30 min |
| SLRNYHLQI [IDO118, porcine IDO-derived 9-11mer peptide] | - (t1/2 (hours) is listed for each of the stably binding peptides (t1/2 ≥ 0.5 h)) | – | – | Binder (t1/2 ≥ 0.5 h): half-life of peptide-SLA-3*04:01 complex (SLA-3*04:01): - (t1/2 (hours) is listed for each of the stably binding peptides (t1/2 ≥ 0.5 h)) |
| TVFENYIADI [RhoC51, porcine RhoC-derived 9-11mer peptide] | 54 min | x | – | – |
| VSLRNYHLQI [IDO130, porcine IDO-derived 9-11mer peptide] | - (t1/2 (hours) is listed for each of the stably binding peptides (t1/2 ≥ 0.5 h)) | – | – | Binder (t1/2 ≥ 0.5 h): half-life of peptide-SLA-3*04:01 complex (SLA-3*04:01): - (t1/2 (hours) is listed for each of the stably binding peptides (t1/2 ≥ 0.5 h)) |
| WKIFEEYHI [IDO131, porcine IDO-derived 9-11mer peptide] | 138 min | x | – | – |
